Where two headings read alike, the source gives them in different places.

Experiment [1] deals with T1, AHR (Mus musculus, UniProt P30561).
T1 sequence (P30561 1-848 P471L/N533S/M589L): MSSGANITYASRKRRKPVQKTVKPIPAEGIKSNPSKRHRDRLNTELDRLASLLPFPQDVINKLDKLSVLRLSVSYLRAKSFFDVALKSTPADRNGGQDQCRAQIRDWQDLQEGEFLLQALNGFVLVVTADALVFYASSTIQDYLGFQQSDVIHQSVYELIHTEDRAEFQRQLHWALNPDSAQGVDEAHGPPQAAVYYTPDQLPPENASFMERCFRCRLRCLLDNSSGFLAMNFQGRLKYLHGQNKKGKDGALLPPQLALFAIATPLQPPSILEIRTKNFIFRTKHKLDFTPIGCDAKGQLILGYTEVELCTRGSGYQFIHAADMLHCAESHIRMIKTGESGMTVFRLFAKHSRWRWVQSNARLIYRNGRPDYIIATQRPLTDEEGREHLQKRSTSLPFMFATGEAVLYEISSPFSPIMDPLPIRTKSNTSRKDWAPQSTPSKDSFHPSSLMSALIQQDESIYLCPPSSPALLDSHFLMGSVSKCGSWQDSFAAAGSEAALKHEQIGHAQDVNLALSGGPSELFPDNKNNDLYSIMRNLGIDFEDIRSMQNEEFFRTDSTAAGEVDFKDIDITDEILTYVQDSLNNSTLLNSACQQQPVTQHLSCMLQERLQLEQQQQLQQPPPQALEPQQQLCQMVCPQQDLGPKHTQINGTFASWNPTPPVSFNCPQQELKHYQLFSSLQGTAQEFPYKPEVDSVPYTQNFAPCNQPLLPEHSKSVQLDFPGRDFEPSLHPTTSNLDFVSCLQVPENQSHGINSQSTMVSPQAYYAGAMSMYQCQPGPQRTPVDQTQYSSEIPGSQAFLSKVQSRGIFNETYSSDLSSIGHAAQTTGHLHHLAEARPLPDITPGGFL
As to the kind of experiment: In vitro assay 3: antagonism in mouse cell line (AHR transactivation, firefly luciferase reporter, kynurenic acid prestimulated). It is filed as cell-based. Put shortly:
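Mouse cells stably carrying a DRE-driven AHR-inducible firefly luciferase reporter were prestimulated with the endogenous agonist kynurenic acid before compound addition. Luciferase read by SteadyGlo; cells without kynurenic acid served as full-inhibition control, with normalization to positive and negative controls. Repeat tests reported as mean or median.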

Experiment [2] deals with T2, AHR (Homo sapiens, UniProt P35869).
T2 construct: U87 MG glioblastoma cells (ATCC #HTB-14) endogenously expressing AHR; endogenous in cells; host or cells: U87 MG glioblastoma cells (ATCC #HTB-14)
T2 sequence (P35869 11-848): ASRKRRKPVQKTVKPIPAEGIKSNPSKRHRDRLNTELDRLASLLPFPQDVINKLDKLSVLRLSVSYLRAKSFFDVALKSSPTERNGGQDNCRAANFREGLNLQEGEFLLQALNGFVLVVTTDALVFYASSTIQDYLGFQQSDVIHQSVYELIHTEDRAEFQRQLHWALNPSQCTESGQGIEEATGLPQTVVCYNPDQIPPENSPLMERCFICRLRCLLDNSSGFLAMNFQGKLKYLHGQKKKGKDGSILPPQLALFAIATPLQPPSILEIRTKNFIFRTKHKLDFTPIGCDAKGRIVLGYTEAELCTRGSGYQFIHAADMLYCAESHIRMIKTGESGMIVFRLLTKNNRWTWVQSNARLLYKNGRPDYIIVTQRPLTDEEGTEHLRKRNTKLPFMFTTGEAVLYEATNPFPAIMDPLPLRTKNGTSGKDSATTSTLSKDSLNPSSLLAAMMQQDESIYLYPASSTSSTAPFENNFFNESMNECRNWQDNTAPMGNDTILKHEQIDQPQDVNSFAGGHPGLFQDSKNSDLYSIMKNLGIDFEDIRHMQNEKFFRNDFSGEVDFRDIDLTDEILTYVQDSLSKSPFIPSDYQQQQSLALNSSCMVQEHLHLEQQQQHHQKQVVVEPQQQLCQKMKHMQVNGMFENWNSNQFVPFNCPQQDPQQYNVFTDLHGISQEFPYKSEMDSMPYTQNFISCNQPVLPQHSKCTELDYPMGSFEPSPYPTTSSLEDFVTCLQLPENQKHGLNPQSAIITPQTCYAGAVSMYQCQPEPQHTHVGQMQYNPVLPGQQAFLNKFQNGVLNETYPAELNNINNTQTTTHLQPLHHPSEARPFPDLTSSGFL
Briefly: In vitro assay 1: antagonism in human cell line (AHR transactivation, firefly luciferase reporter, kynurenic acid prestimulated). The experiment is classed as cell-based. The note with it: AHR Antagonism Human IC50 [M], firefly luciferase reporter. Put shortly:
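U87 MG glioblastoma cells with endogenous AHR, stably carrying a DRE-driven firefly luciferase reporter and constitutive Renilla reporter, prestimulated with kynurenic acid before compound addition. Firefly and Renilla read by dual luciferase; Renilla flags toxicity; normalized to controls (150 μM kynurenic acid + 5 μM staurosporine as full inhibition); repeat values averaged or median.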
A general note: In a reporter assay the amount or activity of a reporter protein is the signal.

The mark [3] stands for this setting: Hepa 1c1c7 cells, 200 μM kynurenic acid, 20 hours, firefly luciferase reporter, read-out: AHR Antagonism Mouse IC50.

Broadly, the IC50 is the concentration that inhibits the measured activity by half. Take `COc1ccc(-c2nc3c4c(CO)cccc4nc(N[C@@H]4CCCCNC4=O)n3n2)cc1` [Example 862, (3R)-3-{[10-(hydroxymethyl)-2-(4-methoxyphenyl)[1,2,4]triazolo[1,5-c]quinazolin-5-yl]amino}azepan-2-one]: the IC50 worked out at 4.12 nM in experiment [1] (setting [3]) and 1.86e-09 M in experiment [2].
For `COc1ccc(-c2nc3c4cccc(CSC)c4nc(N[C@@H]4CCCCNC4=O)n3n2)cc1` [Example 863, (3R)-3-({2-(4-methoxyphenyl)-7-[(methylsulfanyl)methyl][1,2,4]triazolo[1,5-c]quinazolin-5-yl}amino)azepan-2-one] the same measures were 12.9 nM and 2.98e-09 M.
On to `CCOC(=O)[C@@H](C)Nc1nc2c(C(F)(F)F)cccc2c2nc(-c3cnn(C)c3)nn12` [Example 864, ethyl N-[2-(1-methyl-1H-pyrazol-4-yl)-7-(trifluoromethyl)[1,2,4]triazolo[1,5-c]quinazolin-5-yl]-D-alaninate], for which the IC50 in experiment [1] (setting [3]) stood at 378 nM; in experiment [2], 2.57e-08 M.
For `CCOC(=O)[C@@H](C)Nc1nc2c(Br)cccc2c2nc(-c3ccc(OC)cc3)nn12` [Example 865, ethyl N-[7-bromo-2-(4-methoxyphenyl)[1,2,4]triazolo[1,5-c]quinazolin-5-yl]-D-alaninate] the same measures were 11.8 nM and 4.02e-09 M.
For `CCOC(=O)[C@@H](C)Nc1nc2c(Br)cccc2c2nc(-c3cnn(C)c3)nn12` [Example 866, ethyl N-[7-bromo-2-(1-methyl-1H-pyrazol-4-yl)[1,2,4]triazolo[1,5-c]quinazolin-5-yl]-D-alaninate] the same measures were 144 nM and 5.75e-08 M.
For `COC(=O)[C@H](Nc1nc2c(Br)cccc2c2nc(-c3ccc(OC)cc3)nn12)C(C)C` [Example 867, methyl N-[7-bromo-2-(4-methoxyphenyl)[1,2,4]triazolo[1,5-c]quinazolin-5-yl]-D-valinate] the same measures were 3 nM and 2.6e-09 M.
Consider `COC(=O)[C@H](Nc1nc2c(Br)cccc2c2nc(-c3cnn(C)c3)nn12)C(C)C` [Example 868, methyl N-[7-bromo-2-(1-methyl-1H-pyrazol-4-yl)[1,2,4]triazolo[1,5-c]quinazolin-5-yl]-D-valinate], for which the IC50 came out at 6.29 nM in experiment [1] (setting [3]) and 6.28e-09 M in experiment [2].
As for `COc1ccc(-c2nc3c4cccc(Br)c4nc(N[C@H](C)C(=O)O)n3n2)cc1` [Example 870], the IC50 in experiment [1] (setting [3]) was 10.7 nM; in experiment [2], 1.09e-08 M.
For `COc1ccc(-c2nc3c4cccc(Br)c4nc(N[C@@H](C(=O)O)C(C)C)n3n2)cc1` [Example 872, N-[7-bromo-2-(4-methoxyphenyl)[1,2,4]triazolo[1,5-c]quinazolin-5-yl]-D-valine] the same measures were 15.8 nM and 6.57e-09 M.
For the molecule `C[C@@H](Nc1nc2c(C(F)(F)F)cccc2c2nc(-c3cnn(C)c3)nn12)C(=O)N1CCOCC1` [Example 874, (2R)-2-{[2-(1-methyl-1H-pyrazol-4-yl)-7-(trifluoromethyl)[1,2,4]triazolo[1,5-c]quinazolin-5-yl]amino}-1-(morpholin-4-yl)propan-1-one], the results for the IC50 in experiment [1] (setting [3]) and in experiment [2] were 61.7 nM and 2.31e-08 M, respectively.
For `C[C@@H](Nc1nc2c(C(F)(F)F)cccc2c2nc(-c3cnn(C)c3)nn12)C(=O)N1CCN(C)CC1` [Example 875, (2R)-1-(4-methylpiperazin-1-yl)-2-{[2-(1-methyl-1H-pyrazol-4-yl)-7-(trifluoromethyl)[1,2,4]triazolo[1,5-c]quinazolin-5-yl]amino}propan-1-one] the same measures were 31.5 nM and 1.69e-08 M.
For `C[C@@H](Nc1nc2c(C(F)(F)F)cccc2c2nc(-c3cnn(C)c3)nn12)C(=O)N(C)CCN(C)C` [Example 877, N-[2-(dimethylamino)ethyl]-N-methyl-N^2-[2-(1-methyl-1H-pyrazol-4-yl)-7-(trifluoromethyl)[1,2,4]triazolo[1,5-c]quinazolin-5-yl]-D-alaninamide] the same measures were 160 nM and 8.72e-08 M.
For `COCCN(C)C(=O)[C@@H](C)Nc1nc2c(C(F)(F)F)cccc2c2nc(-c3cnn(C)c3)nn12` [Example 878, N-(2-methoxyethyl)-N-methyl-N^2-[2-(1-methyl-1H-pyrazol-4-yl)-7-(trifluoromethyl)[1,2,4]triazolo[1,5-c]quinazolin-5-yl]-D-alaninamide] the same measures were 43.3 nM and 2.78e-08 M.
Regarding `C[C@@H](Nc1nc2c(C(F)(F)F)cccc2c2nc(-c3cnn(C)c3)nn12)C(=O)N1CC2(COC2)C1` [Example 880, (2R)-2-{[2-(1-methyl-1H-pyrazol-4-yl)-7-(trifluoromethyl)[1,2,4]triazolo[1,5-c]quinazolin-5-yl]amino}-1-(2-oxa-6-azaspiro[3.3]heptan-6-yl)propan-1-one], the IC50 in experiment [1] (read-out: AHR Antagonism Mouse IC50, Hepa 1c1c7 cells, 200 μM kynurenic acid, 20 hours, firefly luciferase reporter) was found to be 193 nM; in experiment [2], 5.77e-08 M.
On to `COc1ccc(-c2nc3c4ccccc4nc(N[C@H](C)C(=O)NCCN4CCN(C)CC4)n3n2)cc1` [Example 881, N^2-[2-(4-methoxyphenyl)[1,2,4]triazolo[1,5-c]quinazolin-5-yl]-N-[2-(4-methylpiperazin-1-yl)ethyl]-D-alaninamide], for which the IC50 turned out to be 12.2 nM in experiment [1] (setting [3]) and 6.04e-09 M in experiment [2].
For `COc1ccc(-c2nc3c4ccccc4nc(N[C@H](C)C(=O)N4CCN(C(=O)OC(C)(C)C)CC4)n3n2)cc1` [Example 882, tert-butyl 4-{N-[2-(4-methoxyphenyl)[1,2,4]triazolo[1,5-c]quinazolin-5-yl]-D-alanyl}piperazine-1-carboxylate] the same measures were 5.13 nM and 5.91e-09 M.
Take `COc1ccc(-c2nc3c4cccc(Br)c4nc(N[C@H](C)C(=O)N4CCN(C(=O)OC(C)(C)C)CC4)n3n2)cc1` [Example 883, tert-butyl 4-{N-[7-bromo-2-(4-methoxyphenyl)[1,2,4]triazolo[1,5-c]quinazolin-5-yl]-D-alanyl}piperazine-1-carboxylate]: the IC50 in experiment [1] (setting [3]) came out at 7.79 nM; in experiment [2] it was 5.84e-09 M.
Take `COc1ccc(-c2nc3c4ccccc4nc(N[C@H](C)C(=O)NCCN4CCN(C(=O)OC(C)(C)C)CC4)n3n2)cc1` [Example 884, tert-butyl 4-[2-({N-[2-(4-methoxyphenyl)[1,2,4]triazolo[1,5-c]quinazolin-5-yl]-D-alanyl}amino)ethyl]piperazine-1-carboxylate]: the IC50 in experiment [1] (setting [3]) stood at 8.31 nM; in experiment [2], 6.66e-09 M.
For `COCCNC(=O)[C@@H](C)Nc1nc2c(Br)cccc2c2nc(-c3ccc(OC)cc3)nn12` [Example 885, N^2-[7-bromo-2-(4-methoxyphenyl)[1,2,4]triazolo[1,5-c]quinazolin-5-yl]-N-(2-methoxyethyl)-D-alaninamide] the same measures were 2.94 nM and 1.24e-09 M.

These data come from US20230113037A1 (Bayer Aktiengesellschaft, priority 2019, published 2023).
